Data as given in PubChem BioAssay (NCI).
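Five concentrations, 48 hours, 96-well plates. TGI denotes the concentration required for complete inhibition of growth.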

Experiments:
Assay in all cases: NCI-60 cell line screen, 48 h
IGROV1 ovarian = tested on: IGROV1 ovarian
T-47D breast = tested on: T-47D breast
MALME-3M melanoma = tested on: MALME-3M melanoma
SF-539 CNS = tested on: SF-539 CNS
SNB-75 CNS = tested on: SNB-75 CNS
UO-31 renal = tested on: UO-31 renal
EKVX NSCLC = tested on: EKVX NSCLC
UACC-257 melanoma = tested on: UACC-257 melanoma
DU-145 prostate = tested on: DU-145 prostate
OVCAR-3 ovarian = tested on: OVCAR-3 ovarian
HCT-116 colon = tested on: HCT-116 colon
OVCAR-4 ovarian = tested on: OVCAR-4 ovarian
NCI-H460 lung = tested on: NCI-H460 lung
BT-549 breast = tested on: BT-549 breast
SK-OV-3 ovarian = tested on: SK-OV-3 ovarian
SF-295 CNS = tested on: SF-295 CNS
SN12C renal = tested on: SN12C renal
CCRF-CEM leukemia = tested on: CCRF-CEM leukemia
SK-MEL-28 melanoma = tested on: SK-MEL-28 melanoma
CAKI-1 renal = tested on: CAKI-1 renal

Compound	TGI (IGROV1 ovarian) [µM]	TGI (T-47D breast) [µM]	TGI (MALME-3M melanoma) [µM]	TGI (SF-539 CNS) [µM]	TGI (SNB-75 CNS) [µM]	TGI (UO-31 renal) [µM]	TGI (EKVX NSCLC) [µM]	TGI (UACC-257 melanoma) [µM]	TGI (DU-145 prostate) [µM]	TGI (OVCAR-3 ovarian) [µM]	TGI (HCT-116 colon) [µM]	TGI (OVCAR-4 ovarian) [µM]	TGI (NCI-H460 lung) [µM]	TGI (BT-549 breast) [µM]	TGI (SK-OV-3 ovarian) [µM]	TGI (SF-295 CNS) [µM]	TGI (SN12C renal) [µM]	TGI (CCRF-CEM leukemia) [µM]	TGI (SK-MEL-28 melanoma) [µM]	TGI (CAKI-1 renal) [µM]
Cc1c2c(nc3ccccc13)C(=O)c1cccnc1C2=O	> 100	87.8	3.56	54.2	91.7	> 100	88	27.2	> 100	43.9	18.8	> 100	13.1	> 100	> 100	97.1	> 100	> 100	94.7	–
COc1ccc(NC(C)=O)cc1N1C(=O)/C(=C\c2ccccc2)SC1c1cc(OC)c(OC)c(OC)c1 (stereo not drawn)	> 100	> 100	56.2	45.5	–	> 100	> 100	> 100	80.6	> 100	29.5	–	44.5	> 100	> 100	> 100	> 100	> 100	> 100	> 100
O=[N+]([O-])c1ccc(N/N=C2/CC3=C2CCCCCCCCCC3)c([N+](=O)[O-])c1	> 100	> 100	> 100	–	> 100	> 100	> 100	> 100	> 100	> 100	> 100	> 100	> 100	> 100	> 100	> 100	> 100	> 100	> 100	> 100
O=C(O)c1ccccc1CC1Cc2cc3c(cc2C1)CCC3	> 100	85.6	> 100	> 100	> 100	> 100	> 100	> 100	> 100	> 100	> 100	> 100	> 100	> 100	> 100	> 100	> 100	> 100	> 100	–
O=C(NNC1=NCCCN1)c1ccco1	> 100	> 100	> 100	> 100	> 100	> 100	> 100	> 100	> 100	> 100	> 100	> 100	> 100	> 100	> 100	> 100	> 100	> 100	> 100	–
COc1ccc2c(c1)-c1c(c3cc(OC)ccc3n1CCCN(C)C)CC2	> 36.2	24.8	5.47	–	13.9	26.7	31.4	11.6	33.4	29.6	51.1	30.8	42.9	32.2	32.7	16.8	28.5	14.1	13	28.1
O=c1cc(NNCc2ccccc2)[nH]c(=O)[nH]1	> 100	67	> 100	> 100	–	> 100	> 100	> 100	> 100	> 100	–	> 100	> 100	> 100	–	> 100	> 100	> 100	> 100	> 100
CC(C)(Oc1ccc(Cl)cc1)C(=O)N(C(=O)N1CCCCC1)c1ccccc1	22.3	9.68	85.2	25.3	–	42	21.9	–	27.8	75.1	21.2	–	–	30.4	40.4	–	47	> 100	44.6	29.9
COc1cc2cc(C(=O)N3CC(CCl)c4ccc([N+](=O)[O-])cc43)[nH]c2c(OC)c1OC (stereo not drawn)	> 100	> 100	> 100	> 100	> 100	> 100	67.2	> 100	> 100	> 100	> 100	> 100	–	> 100	–	> 100	> 100	> 100	> 100	> 100
Cc1ccc(OCC2OC(n3cnc4nc(Nc5ccc(Cl)c(Cl)c5)nc(Cl)c43)CC2Oc2ccc(C)cc2)cc1 (stereo not drawn)	> 100	> 100	> 100	–	> 100	> 100	> 100	> 100	> 100	> 100	> 100	> 100	> 100	> 100	> 100	> 100	> 100	> 100	> 100	> 100
CC(O)CN1c2ccccc2Sc2ccccc21 (stereo not drawn)	> 100	> 100	> 100	> 100	–	> 100	> 100	> 100	> 100	> 100	> 100	> 100	> 100	> 100	> 100	> 100	> 100	> 100	> 100	> 100
C=C(C)[C@@H]1CCC2=C[C@H](C/C(C)=C\C3=CC(C)=C(O3)[C@H]1O)OC2=O	> 100	> 100	> 100	> 100	> 100	> 100	> 100	> 100	> 100	> 100	–	> 100	> 100	> 100	–	> 100	> 100	> 100	> 100	> 100
CCOC(=O)CC1(Cc2ccc(OCc3ccccc3)cc2)C(=O)OC(c2ccccc2)N1C(=O)c1ccccc1 (stereo not drawn)	> 100	> 100	> 100	> 100	–	> 100	> 100	> 100	> 100	> 100	> 100	> 100	62.1	> 100	> 100	> 100	> 100	> 100	> 100	> 100
